For the test, the target named is T1, human DGAT1 (Homo sapiens, UniProt O75907).
T1 construct: made in house; host or cells: insect cells (e.g., sf9, sf21, or High Five), Bac-to-Bac baculovirus; total cell membranes
T1 sequence (O75907 1-488): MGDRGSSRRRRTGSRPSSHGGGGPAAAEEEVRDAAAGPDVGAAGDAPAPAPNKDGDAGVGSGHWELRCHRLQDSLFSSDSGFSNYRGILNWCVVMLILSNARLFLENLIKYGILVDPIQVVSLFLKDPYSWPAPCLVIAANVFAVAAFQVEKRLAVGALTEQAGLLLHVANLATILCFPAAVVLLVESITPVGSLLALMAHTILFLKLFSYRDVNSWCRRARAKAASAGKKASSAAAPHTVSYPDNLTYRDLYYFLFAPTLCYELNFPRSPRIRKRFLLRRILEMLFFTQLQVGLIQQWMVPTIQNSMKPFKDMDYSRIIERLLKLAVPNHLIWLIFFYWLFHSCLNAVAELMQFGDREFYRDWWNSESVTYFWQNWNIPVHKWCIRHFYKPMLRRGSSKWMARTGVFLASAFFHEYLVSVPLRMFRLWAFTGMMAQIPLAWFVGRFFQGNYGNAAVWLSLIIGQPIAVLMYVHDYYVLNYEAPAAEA
Briefly: DGAT Scintillation Proximity Assay (SPA) with membranes of insect cells expressing human flagtag DGAT1. The class given is biochemical. The note with it: DGAT inhibition. As for the experimental part: In such an assay human DGAT1 is cloned from a human liver cDNA library. PCR is used to add a restriction site and flag epitope at the most 5′ end and a restriction site at the 3′ end of the sequence. Thereafter, human flagtag (FT) DGAT1 baculovirus may be generated using a Bac-to-Bac Baculovirus Expression System® (Invitrogen). Insect cells (e.g., sf9, sf21, or High Five) are infected for 24 to 72 h and collected by centrifugation. Cell pellets are resuspended in homogenization buffer and lysed using a homogenization device, such as a Microfluidizer. Total cell membranes are collected by ultracentrifugation at 45,000 rpm for 1 h.
A small aliquot (0.2 μg/well) of membrane is incubated with 10 μM compound or mercuric chloride (as positive control for inhibition) in the presence of enzyme substrate, dioleoyl glycerol (200 μM) in 384 well plates, final volume 50 μL per well. […] The reaction is stopped by adding Wheat Germ Agglutinin (WGA) SPA beads (0.2 mg) in mercuric chloride. Cell membranes are allowed to couple to the beads overnight. The signal can be measured using, for example, a Chemiluminescence Image Plate Reader (CLIPR) or TopCount device.
For orientation: SPA uses beads or plates that emit light when radiolabelled molecules are held near them.
A word on the IC50: it is the concentration that inhibits the measured activity by half. Higher therefore signals weaker potency. `CCCc1c(C(=O)OCC)c(C(=O)OCC)c2c(-c3ccccc3)cc(N3CCC3)nn12` [Example 95, 2-Azetidin-1-yl-4-phenyl-7-propyl-pyrrolo[1,2-b]pyridazine-5,6-dicarboxylic acid diethyl ester] gave an IC50 greater than 0.5 µM. The compound `CCCc1c(C(=O)OCC)c(C(=O)OCC)c2c(C3CCCCC3)cc(N3CCOCC3)nn12` [Example 90, 4-Cyclohexyl-2-morpholin-4-yl-7-propyl-pyrrolo[1,2-b]pyridazine-5,6-dicarboxylic acid diethyl ester] had an IC50 of less than 0.5 µM. The figure for `CCCc1c(C(=O)OCC)c(C(=O)OCC)c2c(-c3ccccc3)cc(N3CCCC3)nn12` [Example 96, 4-Phenyl-7-propyl-2-pyrrolidin-1-yl-pyrrolo[1,2-b]pyridazine-5,6-dicarboxylic acid diethyl ester] is less than 0.5 µM; for `CCCc1c(-c2nnc(C)o2)c(C(=O)OCC)c2c(-c3ccccc3)cc(N3CCOCC3)nn12` [Example 78, 6-(5-Methyl-[1,3,4]oxadiazol-2-yl)-2-morpholin-4-yl-4-phenyl-7-propyl-pyrrolo[1,2-b]pyridazine-5-carboxylic acid ethyl ester] it is greater than 0.5 µM. The figure for `CCOC(=O)c1c(C(=O)OCC)c2c(-c3ccccc3)cc(N3CCOCC3)nn2c1C` [Example 24, 7-Methyl-2-morpholin-4-yl-4-phenyl-pyrrolo[1,2-b]pyridazine-5,6-dicarboxylic acid diethyl ester] is greater than 0.5 µM.

`CCOC(=O)c1c(C(=O)OCC)c2c(-c3ccccc3)cc(N3CCOCC3)nn2c1C1CC1` [Example 8, 7-Cyclopropyl-2-morpholin-4-yl-4-phenyl-pyrrolo[1,2-b]pyridazine-5,6-dicarboxylic acid diethyl ester]: the IC50 was greater than 0.5 µM.

As for `CCCc1c(-c2ncc(-c3ccccc3)o2)c(C(=O)OCC)c2c(-c3ccccc3)cc(N3CCOCC3)nn12` [Example 80, 2-Morpholin-4-yl-4-phenyl-6-(5-phenyl-oxazol-2-yl)-7-propyl-pyrrolo[1,2-b]pyridazine-5-carboxylic acid ethyl ester], the concentration for half-maximal inhibition (IC50) is greater than 0.5 µM.

Source of the values: US7300932B2, “Pyrrolo[1,2-b]pyridazine derivatives” (Japan Tobacco Inc., priority 2003, dated 2007).
